Experimental data published in US20120315624A1, “Using LNA Flow-Fish to Quantitatively Monitor Viral Infections in Infected Cells and Test the Efficacy of Antiviral Medications” (priority 2011, published 2012).

Legend:
[1] = system: Sindbis virus (SV); experiment: LNA flow-FISH of Sindbis virus RNA in infected cells with and without antiviral; type: cell-based
Method: Cells were infected with the virus of interest and harvested at various timepoints during infection. Cells were harvested and fixed with 4% paraformaldehye and 5% acetic acid in phosphate-buffered saline (PBS) for 10 min at room temperature. After fixation, the cells were washed twice in PBS and stored at 4° C. until use.
A control oligonucleotide and a specific biotinylated LNA-modified DNA oligonucleotide were used for the quantification of SV RNA. The sequences of the probes along with other relevant details are found in reference 30. The control probe is a nonspecific 22-mer oligonucleotide (nonspecific LNA) lacking complementarity to cellular nucleic acids and having a Tm of 75° C. The specific LNA probe (SV LNA), complementary to the SV RNA portion encoding the structural proteins, was also a 22-mer with a Tm of 76° C. Each had approximately one-third locked nucleic acid content.
When ready to detect the virus present in the cells at various timepoints, the cells were permeabilized with 0.1 μg/mL Proteinase K in TE buffer (pH 8.0) for 30 min at 37° C. The cells were then washed twice with PBS. A pre-hybridization step was then carried out under the same conditions as the hybridization, but without LNA probe. After pre-hybridization, a solution of 0.1× saline-sodium citrate (SSC) buffer was added followed by centrifugation and removal of the supernatant. […]
To use the LNA flow-FISH method to study the efficacy of antiviral medication, before, during, or after infection, cells were treated with an antiviral compound and left for various amounts of time. […] The change in viral nucleic acid with antiviral treatment can be quantified by taking the mean fluorescence intensity (MFI) or by examining the percent of infected cells compared to uninfected cells.
(§1) As an example, Sindbis virus (SV) was used along with Ribavirin (Rbv), an antiviral, to test the LNA flow-FISH method for studying the action and efficacy of antiviral medications. […] Samples infected with SV with and without Rbv were analyzed by LNA flow-FISH.

[2] = system: many DNA and RNA viruses including Sindbis; settings: general statement on the nucleoside analog; cited from earlier work
[3] = system: Sindbis virus (SV); experiment: EGFP signal of the recombinant Sindbis virus measured by flow cytometry; type: cell-based; settings: SV-infected cells, 6-h incubation with Rbv, FIG. 4
Method: Sindbis virus (SV) was used to test the LNA flow-FISH method for the quantitative monitoring of a viral infection in cells. After infecting cells with SV, cells were collected at different timepoints and their mean fluorescence intensity (MFI) was measured using flow cytometry. The LNA flow-FISH technique was directly compared with a genetic recombination method of measuring viral infection—this was possible because the SV strain has an enhanced green fluorescent protein (eGFP) construct incorporated into the viral RNA. […] In addition, lysed cells were used to compare the LNA flow-FISH results with QRT-PCR.
To use the LNA flow-FISH method to study the efficacy of antiviral medication, before, during, or after infection, cells were treated with an antiviral compound and left for various amounts of time. The LNA flow-FISH method is then used as described above. The change in viral nucleic acid with antiviral treatment can be quantified by taking the mean fluorescence intensity (MFI) or by examining the percent of infected cells compared to uninfected cells.
as §1

## NC(=O)c1ncn([C@@H]2O[C@H](CO)[C@@H](O)[C@H]2O)n1 [Rbv, Ribavirin]
[1]; 6-h incubation with Rbv, FIG. 4
  viral replication (SV RNA by LNA flow-FISH): reduction in viral replication
[1]; 6 h, SV LNA flow-FISH and EGFP, FIG. 4
  mean fluorescence intensity (MFI) of samples with Rbv versus samples without antiviral: drastically lower
[1]; 6 h with Rbv
  uninfected cells in the population when Rbv present: no uninfected cells were observed
[2]
  replication of viruses: inhibits the replication of many DNA and RNA viruses including Sindbis
[3]
  viral expression (EGFP): reduction
